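48-hour exposure; five concentrations; linearly interpolated endpoints. Here, GI50 denotes the concentration required for 50% inhibition of growth. TGI: concentration producing complete growth inhibition.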
How the values were obtained:
Assay in all cases: NCI tumour cell line growth inhibition, 48 h
[1] = system: LOX IMVI melanoma
[2] = system: OVCAR-5 ovarian
[3] = system: 786-0 renal
[4] = system: MALME-3M melanoma
[5] = system: OVCAR-3 ovarian
[6] = system: SF-295 CNS
[7] = system: ACHN renal
[8] = system: HCT-15 colon
[9] = system: A549 NSCLC
[10] = system: MCF7 breast
[11] = system: HS 578T breast
[12] = system: NCI-H460 lung
[13] = system: SNB-75 CNS
[14] = system: CCRF-CEM leukemia
[15] = system: DU-145 prostate
[16] = system: SK-MEL-2 melanoma
[17] = system: A498 renal
[18] = system: SF-268 CNS
[19] = system: UO-31 renal
[20] = system: RXF 393 renal
[21] = system: HOP-62 NSCLC
[22] = system: MDA-MB-435
[23] = system: SK-MEL-5 melanoma
[24] = system: MOLT-4 leukemia
[25] = system: HOP-92 NSCLC
[26] = system: HT29 colon
[27] = system: M14 melanoma
[28] = system: NCI/ADR-RES ovarian
[29] = system: SN12C renal
[30] = system: UACC-62 melanoma
[31] = system: TK-10 renal
[32] = system: SK-OV-3 ovarian
[33] = system: SF-539 CNS
[34] = system: UACC-257 melanoma
[35] = system: OVCAR-8 ovarian
[36] = system: T-47D breast
[37] = system: NCI-H522 lung
[38] = system: NCI-H23 lung
[39] = system: HCC-2998 colon
[40] = system: PC-3 prostate
[41] = system: RPMI-8226 leukemia
[42] = system: KM12 colon
[43] = system: K-562 leukemia
[44] = system: CAKI-1 renal
[45] = system: U251 CNS
[46] = system: MDA-MB-231 breast
[47] = system: SK-MEL-28 melanoma
[48] = system: IGROV1 ovarian
[49] = system: OVCAR-4 ovarian
[50] = system: SR leukemia
[51] = system: EKVX NSCLC
[52] = system: SW-620 colon
[53] = system: SNB-19 CNS
[54] = system: NCI-H226 lung
[55] = system: BT-549 breast
[56] = system: HL-60(TB) leukemia
[57] = system: COLO 205 colon
[58] = system: HCT-116 colon

Q: What does the source list for C=C1C(=O)O[C@@H]2[C@@H]3O[C@@H](C[C@@H]13)[C@](C)(O)CC/C=C(\C)CCC[C@H]2C?
A: GI50 [1]: 1.51 µM; TGI [1]: 3 µM; GI50 [2]: 3.19 µM; TGI [2]: 12.6 µM; GI50 [3]: 2.56 µM; TGI [3]: 9.03 µM; GI50 [4]: 0.18 µM; TGI [4]: 2.61 µM; GI50 [5]: 1.65 µM; TGI [5]: 3.86 µM; GI50 [6]: 9.38 µM; TGI [6]: 23.9 µM; GI50 [7]: 0.926 µM; TGI [7]: 2.34 µM; GI50 [8]: 1.39 µM; TGI [8]: 2.74 µM; GI50 [9]: 9.21 µM; TGI [9]: 25.2 µM; GI50 [10]: > 100 µM; TGI [10]: > 100 µM; GI50 [11]: 5.99 µM; TGI [11]: 24.9 µM; GI50 [12]: > 100 µM; TGI [12]: > 100 µM; GI50 [13]: 14.1 µM; TGI [13]: > 35.8 µM; GI50 [14]: 0.394 µM; TGI [14]: 1.91 µM; GI50 [15]: 3.08 µM; TGI [15]: 12.6 µM; GI50 [16]: 9.32 µM; TGI [16]: 24.2 µM; GI50 [17]: 20.9 µM; TGI [17]: 35.5 µM; GI50 [18]: > 100 µM; TGI [18]: > 100 µM; GI50 [19]: 1.25 µM; TGI [19]: 2.79 µM; GI50 [20]: 1.77 µM; TGI [21]: 31.7 µM; GI50 [22]: 1.97 µM; TGI [22]: 6.17 µM; GI50 [23]: 5.57 µM; TGI [23]: 13.9 µM; GI50 [24]: 1.39 µM; TGI [24]: 3.37 µM; GI50 [25]: 0.5 µM; TGI [25]: 2.39 µM; GI50 [26]: 3.69 µM; TGI [26]: > 33.9 µM; GI50 [27]: 1.83 µM; TGI [27]: 3.75 µM; GI50 [28]: 0.523 µM; TGI [28]: 2.13 µM; GI50 [29]: 2.06 µM; TGI [29]: 6.64 µM; GI50 [30]: 3.51 µM; TGI [30]: 14.1 µM; GI50 [31]: 1.5 µM; TGI [31]: 3.26 µM; GI50 [32]: 28.7 µM; TGI [32]: > 50.4 µM; GI50 [33]: 13 µM; TGI [33]: 25.7 µM; GI50 [34]: 4.9 µM; TGI [34]: 14.9 µM; GI50 [35]: 1.91 µM; TGI [35]: 10.4 µM; TGI [36]: > 22.6 µM; GI50 [37]: 1.65 µM; TGI [37]: 4.05 µM; TGI [38]: 3.67 µM; GI50 [39]: 0.83 µM; TGI [39]: 3.88 µM; GI50 [40]: 1.76 µM; TGI [40]: 5.27 µM; GI50 [41]: 0.258 µM; TGI [41]: 1.47 µM; GI50 [42]: 6.35 µM; TGI [42]: 18.1 µM; GI50 [43]: 0.416 µM; TGI [43]: 4.01 µM; GI50 [44]: 0.957 µM; TGI [44]: 2.59 µM; GI50 [45]: 2.84 µM; TGI [45]: 12.8 µM; GI50 [46]: 1.51 µM; TGI [46]: 4.14 µM; GI50 [47]: 2.36 µM; TGI [47]: > 21.8 µM; GI50 [48]: 1.06 µM; TGI [48]: 4.92 µM; GI50 [49]: 2.38 µM; TGI [49]: > 23 µM; GI50 [50]: 0.395 µM; TGI [50]: 2.05 µM; GI50 [51]: 7.55 µM; TGI [51]: 20 µM; GI50 [52]: 0.739 µM; TGI [52]: 2.31 µM; GI50 [53]: 29 µM; TGI [53]: > 49 µM; GI50 [54]: 2.08 µM; TGI [54]: 7.4 µM; GI50 [55]: 1.84 µM; TGI [55]: 4.86 µM

Q: With CCOC(=O)C(Br)(C(N)=O)C1(O)OC(c2ccccc2)=C(Br)C1=O (stereo not drawn) as the compound, how does the TGI [1] read?
A: 46.1 µM

Q: And the TGI [2]?
A: 37 µM

Q: And the TGI [3]?
A: 41.9 µM

Q: And the TGI [4]?
A: 55.6 µM

Q: What about the TGI [5] of the same compound?
A: 55 µM

Q: And the TGI [6]?
A: > 100 µM

Q: What about the TGI [7] of the same compound?
A: 32.3 µM

Q: And the TGI [56]?
A: > 100 µM

Q: And the TGI [8]?
A: 34.8 µM

Q: What about the TGI [9] of the same compound?
A: 66.8 µM

Q: And the TGI [10]?
A: 41 µM

Q: What about the TGI [11] of the same compound?
A: > 100 µM

Q: What about the TGI [12] of the same compound?
A: > 100 µM

Q: And the TGI [57]?
A: 30.7 µM

Q: What about the TGI [14] of the same compound?
A: 10.2 µM

Q: And the TGI [15]?
A: > 100 µM

Q: And the TGI [16]?
A: > 100 µM

Q: And the TGI [17]?
A: > 100 µM

Q: What about the TGI [18] of the same compound?
A: 41.5 µM

Q: And the TGI [19]?
A: 44 µM

Q: And the TGI [20]?
A: 34.4 µM

Q: And the TGI [21]?
A: 81.2 µM

Q: What about the TGI [22] of the same compound?
A: > 100 µM

Q: What about the TGI [23] of the same compound?
A: 60.2 µM

Q: What about the TGI [26] of the same compound?
A: 39.3 µM

Q: What about the TGI [27] of the same compound?
A: 62.9 µM

Q: What about the TGI [28] of the same compound?
A: > 100 µM

Q: And the TGI [29]?
A: 31.7 µM

Q: What about the TGI [30] of the same compound?
A: 92.9 µM

Q: What about the TGI [31] of the same compound?
A: 33.3 µM

Q: And the TGI [32]?
A: > 100 µM

Q: And the TGI [33]?
A: 32.3 µM

Q: What about the TGI [34] of the same compound?
A: > 100 µM

Q: And the TGI [35]?
A: 33.3 µM

Q: What about the TGI [36] of the same compound?
A: 59.6 µM

Q: What about the TGI [37] of the same compound?
A: 11.7 µM

Q: And the TGI [38]?
A: 53.7 µM

Q: What about the TGI [39] of the same compound?
A: 35 µM

Q: What about the TGI [40] of the same compound?
A: 36.3 µM

Q: What about the TGI [41] of the same compound?
A: 27.7 µM

Q: And the TGI [42]?
A: > 100 µM

Q: And the TGI [43]?
A: 53.7 µM

Q: What about the TGI [44] of the same compound?
A: 40.1 µM

Q: And the TGI [45]?
A: 32.6 µM

Q: What about the TGI [46] of the same compound?
A: 33.6 µM

Q: What about the TGI [47] of the same compound?
A: > 100 µM

Q: And the TGI [58]?
A: 36.5 µM

Q: What about the TGI [48] of the same compound?
A: 43.5 µM

Q: And the TGI [50]?
A: 41.3 µM

Q: And the TGI [51]?
A: 46.8 µM

Q: And the TGI [52]?
A: 43.1 µM

Q: What about the TGI [53] of the same compound?
A: > 100 µM

Q: What about the TGI [54] of the same compound?
A: 42.3 µM

Q: And the TGI [55]?
A: 34.3 µM

Q: Which results are given for C[N+]1([O-])CCC(O)(C2CC2)CC1 (stereo not drawn)?
A: TGI [1]: > 100 µM; TGI [2]: > 100 µM; TGI [3]: > 100 µM; TGI [4]: > 100 µM; TGI [5]: > 100 µM; TGI [6]: > 100 µM; TGI [7]: > 100 µM; TGI [56]: > 100 µM; TGI [8]: > 100 µM; TGI [9]: > 100 µM; TGI [10]: > 100 µM; TGI [11]: > 100 µM; TGI [57]: > 100 µM; TGI [13]: > 100 µM; TGI [14]: > 100 µM; TGI [15]: > 100 µM; TGI [16]: > 100 µM; TGI [18]: > 100 µM; TGI [19]: > 100 µM; TGI [20]: > 100 µM; TGI [21]: > 100 µM; TGI [22]: > 100 µM; TGI [23]: > 100 µM; TGI [24]: > 100 µM; TGI [26]: > 100 µM; TGI [27]: > 100 µM; TGI [28]: > 100 µM; TGI [29]: > 100 µM; TGI [30]: > 100 µM; TGI [31]: > 100 µM; TGI [32]: > 100 µM; TGI [34]: > 100 µM; TGI [35]: > 100 µM; TGI [36]: > 100 µM; TGI [38]: > 100 µM; TGI [39]: > 100 µM; TGI [40]: > 100 µM; TGI [41]: > 100 µM; TGI [42]: > 100 µM; TGI [43]: > 100 µM; TGI [44]: > 100 µM; TGI [45]: > 100 µM; TGI [46]: > 100 µM; TGI [47]: > 100 µM; TGI [58]: > 100 µM; TGI [48]: > 100 µM; TGI [49]: > 100 µM; TGI [50]: > 100 µM; TGI [51]: > 100 µM; TGI [52]: > 100 µM; TGI [53]: > 100 µM; TGI [54]: > 100 µM; TGI [55]: > 100 µM
